Laboratory results reported in patent publication US6762207B1, “(E)-styryl sulfone anticancer agents” (priority 1999, dated 2004).

Assays:
Format in all cases: cell-based
Set-up in all cases: dose or concentration left out as unconfirmed
Details in all cases: 96 hours
[1] = system: colorectal carcinoma cell line DLD-1; assay: Trypan blue exclusion viability assay, DLD-1
Experimental: (§1) MCF-7 is estrogen-responsive, while BT-20 is an estrogen-unresponsive cell line. NIH/3T3 and HFL are normal murine and human fibroblasts, respectively. MCF-7, BT-20, DLD-1 and H157 were grown in Dulbecco's modified Eagle's medium (DMEM) containing 10% fetal bovine serum supplemented with penicillin and streptomycin. DU145 was cultured in RPMI with 10% fetal bovine serum containing penicillin and streptomycin. […] All cell cultures were maintained at 37° C. in a humidified atmosphere of 5% CO2. Cells were treated with test compound at 2.5 mM concentration and cell viability was determined after 96 hours by the Trypan blue exclusion method.

[2] = system: prostate tumor cell line DU-145; assay: Trypan blue exclusion viability assay, DU145
Experimental: as §1

[3] = system: breast tumor cell line MCF-7; assay: Trypan blue exclusion viability assay, MCF-7
Experimental: as §1

[4] = system: non-small cell lung carcinoma cell line H157; assay: Trypan blue exclusion viability assay, H157
Experimental: as §1

[5] = system: breast tumor cell line BT-20; assay: Trypan blue exclusion viability assay, BT20
Experimental: as §1

O=S(=O)(/C=C/c1ccc(Cl)cc1)Cc1ccc(Cl)cc1Cl [Example 5, (E)-4-Chlorostyryl-2,4-dichlorobenzylsulfone]
+++ (40-50% = +++): Cell death, MCF-7 [3]
++ (10-15% = ++): Cell death, DLD-1 [1] | Cell death, H157 [4]
+ (5-10%: = +): Cell death, DU145 [2]

N#Cc1ccc(CS(=O)(=O)/C=C/c2ccc(F)cc2)cc1 [Example 10, (E)-4-Fluorostyryl-4-cyanobenzylsulfone]
++ (10-15% = ++): Cell death, DU145 [2]
+++ (40-50% = +++): Cell death, MCF-7 [3] | Cell death, H157 [4]

N#Cc1ccc(CS(=O)(=O)/C=C/c2ccc(Cl)cc2)cc1 [Example 11, (E)-4-Chlorostyryl-4-cyanobenzylsulfone]
+ (5-10%: = +): Cell death, DU145 [2] | Cell death, MCF-7 [3] | Cell death, H157 [4]

N#Cc1ccc(CS(=O)(=O)/C=C/c2ccc(Br)cc2)cc1 [Example 12, (E)-4-Bromostyryl-4-cyanobenzylsulfone]
− (0% = −): Cell death, DLD-1 [1] | Cell death, DU145 [2] | Cell death, MCF-7 [3]
+ (5-10%: = +): Cell death, H157 [4]

O=S(=O)(/C=C/c1ccc(Cl)cc1Cl)Cc1ccc(Cl)cc1 [Example 16, (E)-2,4-Dichlorostyryl-4-chlorobenzylsulfone]
+++ (40-50% = +++): Cell death, DU145 [2]
++++ (50-60% = ++++): Cell death, DLD-1 [1] | Cell death, MCF-7 [3]

O=S(=O)(/C=C/c1ccc(Cl)c(Cl)c1)Cc1ccc(Cl)cc1 [Example 17, (E)-3,4-Dichlorostyryl-4-chlorobenzylsulfone]
+ (5-10%: = +): Cell death, DLD-1 [1] | Cell death, DU145 [2] | Cell death, MCF-7 [3]

O=S(=O)(/C=C/c1cccc(Cl)c1Cl)Cc1ccc(Cl)cc1 [Example 18, (E)-2,3-Dichlorostyryl-4-chlorobenzylsulfone]
+ (5-10%: = +): Cell death, DLD-1 [1] | Cell death, DU145 [2] | Cell death, MCF-7 [3]

O=[N+]([O-])c1ccccc1/C=C/S(=O)(=O)Cc1ccc(Cl)cc1Cl [Example 44, (E)-2-nitrostyryl-2,4-dichlorobenzylsulfone]
+ (5-10%: = +): Cell death, DLD-1 [1] | Cell death, DU145 [2] | Cell death, H157 [4] | Cell death, BT20 [5]

O=S(=O)(/C=C/c1ccc(F)cc1C(F)(F)F)Cc1ccc(Cl)cc1Cl [Example 45, (E)-2-trifluoromethyl-4-fluorostyryl-2,4-dichlorobenzylsulfone]
+++ (40-50% = +++): Cell death, DLD-1 [1] | Cell death, DU145 [2] | Cell death, H157 [4] | Cell death, BT20 [5]

O=[N+]([O-])c1ccccc1/C=C/S(=O)(=O)Cc1ccc(Br)cc1 [Example 46, (E)-2-nitrostyryl-4-bromobenzylsulfone]
+ (5-10%: = +): Cell death, DLD-1 [1] | Cell death, DU145 [2] | Cell death, H157 [4] | Cell death, BT20 [5]

O=[N+]([O-])c1cccc(/C=C/S(=O)(=O)Cc2ccc(Br)cc2)c1 [Example 47, (E)-3-nitrostyryl-4-bromobenzylsulfone]
+ (5-10%: = +): Cell death, DLD-1 [1] | Cell death, DU145 [2] | Cell death, H157 [4] | Cell death, BT20 [5]

O=[N+]([O-])c1ccc(/C=C/S(=O)(=O)Cc2ccc(Br)cc2)cc1 [Example 48, (E)-4-nitrostyryl-4-bromobenzylsulfone]
++++ (50-60% = ++++): Cell death, DLD-1 [1] | Cell death, DU145 [2] | Cell death, H157 [4] | Cell death, BT20 [5]

O=S(=O)(/C=C/c1ccccc1C(F)(F)F)Cc1ccc(Br)cc1 [Example 49, (E)-2-trifluoromethylstyryl-4-bromobenzylsulfone]
+ (5-10%: = +): Cell death, DLD-1 [1] | Cell death, DU145 [2] | Cell death, H157 [4] | Cell death, BT20 [5]

N#Cc1ccc(CS(=O)(=O)/C=C/c2ccccc2[N+](=O)[O-])cc1 [Example 52, (E)-2-nitrostyryl-4-cyanobenzylsulfone]
+ (5-10%: = +): Cell death, DLD-1 [1] | Cell death, DU145 [2] | Cell death, H157 [4] | Cell death, BT20 [5]

N#Cc1ccc(CS(=O)(=O)/C=C/c2cccc([N+](=O)[O-])c2)cc1 [Example 53, (E)-3-nitrostyryl-4-cyanobenzylsulfone]
+ (5-10%: = +): Cell death, DLD-1 [1] | Cell death, DU145 [2] | Cell death, H157 [4] | Cell death, BT20 [5]

N#Cc1ccc(CS(=O)(=O)/C=C/c2ccc([N+](=O)[O-])cc2)cc1 [Example 54, (E)-4-nitrostyryl-4-cyanobenzylsulfone]
++++ (50-60% = ++++): Cell death, DLD-1 [1] | Cell death, DU145 [2] | Cell death, H157 [4] | Cell death, BT20 [5]

Cc1ccc(CS(=O)(=O)/C=C/c2ccc(F)cc2)cc1 [Example 55, (E)-4-fluorostyryl-4-methylbenzylsulfone]
+ (5-10%: = +): Cell death, DLD-1 [1] | Cell death, DU145 [2] | Cell death, H157 [4] | Cell death, BT20 [5]

Cc1ccc(CS(=O)(=O)/C=C/c2ccc(Br)cc2)cc1 [Example 56, (E)-4-bromostyryl-4-methylbenzylsulfone]
+ (5-10%: = +): Cell death, DLD-1 [1] | Cell death, DU145 [2] | Cell death, H157 [4] | Cell death, BT20 [5]

Cc1ccc(CS(=O)(=O)/C=C/c2ccccc2[N+](=O)[O-])cc1 [Example 57, (E)-2-nitrostyryl-4-methylbenzylsulfone]
+ (5-10%: = +): Cell death, DLD-1 [1] | Cell death, DU145 [2] | Cell death, H157 [4] | Cell death, BT20 [5]

Cc1ccc(CS(=O)(=O)/C=C/c2cccc([N+](=O)[O-])c2)cc1 [Example 58, (E)-3-nitrostyryl-4-methylbenzylsulfone]
+ (5-10%: = +): Cell death, DLD-1 [1] | Cell death, DU145 [2] | Cell death, H157 [4] | Cell death, BT20 [5]

Cc1ccc(CS(=O)(=O)/C=C/c2ccc([N+](=O)[O-])cc2)cc1 [Example 59, (E)-4-nitrostyryl-4-methylbenzylsulfone]
+ (5-10%: = +): Cell death, DLD-1 [1] | Cell death, DU145 [2] | Cell death, H157 [4] | Cell death, BT20 [5]

COc1ccc(CS(=O)(=O)/C=C/c2ccc(F)cc2)cc1 [Example 60, (E)-4-fluorostyryl-4-methoxybenzylsulfone]
+++++ (Above 80% = +++++): Cell death, DLD-1 [1] | Cell death, DU145 [2] | Cell death, H157 [4] | Cell death, BT20 [5]

COc1ccc(CS(=O)(=O)/C=C/c2ccc(Cl)cc2)cc1 [Example 61, (E)-4-chlorostyryl-4-methoxybenzylsulfone]
++++ (50-60% = ++++): Cell death, DLD-1 [1] | Cell death, DU145 [2] | Cell death, H157 [4] | Cell death, BT20 [5]

COc1ccc(CS(=O)(=O)/C=C/c2ccc(Br)cc2)cc1 [Example 62, (E)-4-bromostyryl-4-methoxybenzylsulfone]
++++ (50-60% = ++++): Cell death, DLD-1 [1] | Cell death, DU145 [2] | Cell death, H157 [4] | Cell death, BT20 [5]

COc1ccc(CS(=O)(=O)/C=C/c2ccccc2[N+](=O)[O-])cc1 [Example 63, (E)-2-nitrostyryl-4-methoxybenzylsulfone]
+ (5-10%: = +): Cell death, DLD-1 [1] | Cell death, DU145 [2] | Cell death, H157 [4] | Cell death, BT20 [5]

COc1ccc(CS(=O)(=O)/C=C/c2cccc([N+](=O)[O-])c2)cc1 [Example 64, (E)-3-nitrostyryl-4-methoxybenzylsulfone]
+ (5-10%: = +): Cell death, DLD-1 [1] | Cell death, DU145 [2] | Cell death, H157 [4] | Cell death, BT20 [5]

COc1ccc(CS(=O)(=O)/C=C/c2ccc([N+](=O)[O-])cc2)cc1 [Example 65, (E)-4-nitrostyryl-4-methoxybenzylsulfone]
++++ (50-60% = ++++): Cell death, DLD-1 [1] | Cell death, DU145 [2] | Cell death, H157 [4] | Cell death, BT20 [5]

O=[N+]([O-])c1ccc(CS(=O)(=O)/C=C/c2ccc(Cl)cc2)cc1 [Example 66, (E)-4-chlorostyryl-4-nitrobenzylsulfone]
+ (5-10%: = +): Cell death, DLD-1 [1] | Cell death, DU145 [2] | Cell death, H157 [4] | Cell death, BT20 [5]

O=[N+]([O-])c1ccc(CS(=O)(=O)/C=C/c2ccc(F)cc2)cc1 [Example 67, (E)-4-fluorostyryl-4-nitrobenzylsulfone]
+ (5-10%: = +): Cell death, DLD-1 [1] | Cell death, DU145 [2] | Cell death, H157 [4] | Cell death, BT20 [5]

(E)-4-trifluoromethylstyryl-4-bromoyanobenzylsulfone [Example 51]
+ (5-10%: = +): Cell death, DLD-1 [1] | Cell death, DU145 [2] | Cell death, H157 [4] | Cell death, BT20 [5]
